Measured values as given in patent US8609678B2, “Reverse amide compounds as protein deacetylase inhibitors and methods of use thereof” (Acetylon Pharmaceuticals, priority 2010, dated 2013).
Where two headings read alike, the source gives them in different places. Each block holds one compound with its values, some of them ahead of it.

Key:
refractory relapsed MM = conditions: 202 patients with refractory relapsed MM; cited from earlier work
HDAC6 = HDAC6 (Homo sapiens (Human), UniProt Q9UBN7); assay: HDAC enzyme assay, HDAC6
Method: (§1) Compounds for testing were diluted in DMSO to 50 fold the final concentration and a ten point three fold dilution series was made. The compounds were diluted in assay buffer (50 mM HEPES, pH 7.4, 100 mM KCl, 0.001% Tween-20, 0.05% BSA, 20 μM TCEP) to 6 fold their final concentration. […] The tripeptide substrate and trypsin at 0.05 μM final concentration were diluted in assay buffer at 6 fold their final concentration. The final enzyme concentrations used in these assays were 3.3 ng/ml (HDAC1), 0.2 ng/ml (HDAC2), 0.08 ng/ml (HDAC3) and 2 ng/ml (HDAC6). […] Five μl compounds and 20 μl of enzyme were added to wells of a black, opaque 384 well plate in duplicate. Enzyme and compound were incubated together at room temperature for 10 minutes. […] The development of fluorescence was monitored for 60 min and the linear rate of the reaction was calculated. The IC50 was determined using Graph Pad Prism by a four parameter curve fit.

HDAC3 = HDAC3 (Homo sapiens (Human), UniProt O15379); assay: HDAC enzyme assay, HDAC3; format: biochemical
Chain of HDAC3 (O15379 whole entry): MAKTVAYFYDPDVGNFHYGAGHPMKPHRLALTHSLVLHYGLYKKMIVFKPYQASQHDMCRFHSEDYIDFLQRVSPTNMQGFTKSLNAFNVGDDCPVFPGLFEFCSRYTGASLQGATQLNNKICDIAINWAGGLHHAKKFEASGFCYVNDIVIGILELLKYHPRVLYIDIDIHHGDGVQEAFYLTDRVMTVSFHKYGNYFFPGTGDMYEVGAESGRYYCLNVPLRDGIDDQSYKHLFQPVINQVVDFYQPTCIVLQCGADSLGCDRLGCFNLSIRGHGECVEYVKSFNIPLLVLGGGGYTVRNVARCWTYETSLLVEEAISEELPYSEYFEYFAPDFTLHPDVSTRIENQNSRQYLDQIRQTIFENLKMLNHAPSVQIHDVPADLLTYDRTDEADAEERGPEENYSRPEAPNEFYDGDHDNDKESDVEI
Chain of HDAC3 (Q9Y618 395-489 partner): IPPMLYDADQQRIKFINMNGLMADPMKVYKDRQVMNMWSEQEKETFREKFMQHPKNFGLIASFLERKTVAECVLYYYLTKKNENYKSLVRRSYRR
Method: as §1

Chain of HDAC6 (Q9UBN7 whole entry): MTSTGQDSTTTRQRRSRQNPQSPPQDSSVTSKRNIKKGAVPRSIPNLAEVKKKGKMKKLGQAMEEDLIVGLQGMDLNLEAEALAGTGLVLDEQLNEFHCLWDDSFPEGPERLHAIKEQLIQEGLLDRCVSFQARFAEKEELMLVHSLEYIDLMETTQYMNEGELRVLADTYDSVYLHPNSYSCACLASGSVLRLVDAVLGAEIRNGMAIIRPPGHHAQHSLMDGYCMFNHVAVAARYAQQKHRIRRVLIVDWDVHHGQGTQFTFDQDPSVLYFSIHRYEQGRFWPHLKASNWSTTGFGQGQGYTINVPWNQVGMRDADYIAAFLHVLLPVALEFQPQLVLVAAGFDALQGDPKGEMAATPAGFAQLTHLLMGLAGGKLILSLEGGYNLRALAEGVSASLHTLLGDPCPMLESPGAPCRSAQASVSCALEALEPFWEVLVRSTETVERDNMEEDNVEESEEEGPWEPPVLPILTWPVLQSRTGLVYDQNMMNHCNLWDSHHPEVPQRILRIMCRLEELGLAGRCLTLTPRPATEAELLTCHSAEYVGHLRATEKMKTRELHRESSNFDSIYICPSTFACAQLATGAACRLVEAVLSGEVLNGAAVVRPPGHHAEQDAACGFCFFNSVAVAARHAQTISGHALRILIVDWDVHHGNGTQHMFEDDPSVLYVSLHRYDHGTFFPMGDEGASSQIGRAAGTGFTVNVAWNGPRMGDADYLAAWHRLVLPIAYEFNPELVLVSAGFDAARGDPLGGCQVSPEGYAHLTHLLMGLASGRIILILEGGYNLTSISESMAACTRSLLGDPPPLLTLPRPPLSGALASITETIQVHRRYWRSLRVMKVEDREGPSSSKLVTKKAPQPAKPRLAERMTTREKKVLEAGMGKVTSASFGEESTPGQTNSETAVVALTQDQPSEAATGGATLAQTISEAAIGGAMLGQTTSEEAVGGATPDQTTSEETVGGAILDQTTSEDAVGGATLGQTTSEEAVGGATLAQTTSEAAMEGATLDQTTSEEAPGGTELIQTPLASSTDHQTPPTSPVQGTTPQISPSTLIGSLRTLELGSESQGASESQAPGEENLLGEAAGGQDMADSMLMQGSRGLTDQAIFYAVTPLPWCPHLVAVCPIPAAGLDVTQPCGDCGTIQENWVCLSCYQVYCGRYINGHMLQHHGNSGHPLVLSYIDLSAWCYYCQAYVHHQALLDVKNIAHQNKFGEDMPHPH

Structure (SMILES): CC(C)C[C@H](NC(=O)[C@H](Cc1ccccc1)NC(=O)c1cnccn1)B(O)O [bortezomib]
complete and near complete responses (refractory relapsed MM): 10% | patients did not respond (refractory relapsed MM): 65% | responses (refractory relapsed MM): 35%

IC50 (HDAC6): 0.007 µM | IC50 (HDAC3; 0.08 ng/ml enzyme, 17 μM tripeptide substrate, read-out: IC50(nM) HDAC3): 243 nM
Structure (SMILES): COC(c1ccccc1)(c1ccccc1)c1ccc(C(=O)NCCCCCCC(=O)NO)cc1 [N-(7-(hydroxyamino)-7-oxoheptyl)-4-(methoxydiphenylmethyl)benzamide]

Structure (SMILES): NC(=O)CCCCCCNC(=O)c1cnc(N(c2ccccc2)c2ccccc2)nc1 [N-(7-amino-7-oxoheptyl)-2-(diphenylamino)pyrimidine-5-carboxamide]
IC50 (HDAC6; read-out: IC50 HDAC6, μM): > 50 µM | IC50 (HDAC3; μM, read-out: IC50 HDAC3): > 50000 nM
